Experiments:
FLT3 kinase = FLT3 kinase (Homo sapiens (Human), UniProt P36888); assay: FLT3 kinase assay (radiometric); assay type: biochemical; details: bound
Procedure, shortened: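 Recombinant FLT3 (5 ng) phosphorylating poly(Glu4:Tyr1) (2 μg) with 10 μM ATP plus [^33P]-ATP in MOPS pH 7.0 buffer, 4% DMSO final, 60 min at 30° C. Reaction stopped with phosphoric acid, filter-captured and scintillation-counted; IC50 derived from dose-response.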

[1] = test system: THP-1 human acute monocytic leukemia cell harboring NRAS G12D mutation; assay: THP-1 cell proliferation assay (counter screen, CellTiter-96); assay type: cell-based; details: Cytotoxicity, THP-1 cells (counter screen), 72 hours
Procedure, shortened: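 THP-1 cells, RTK-independent owing to NRAS G12D, seeded at 5000/well, incubated overnight at 37 °C/5% CO2, then exposed to increasing compound concentrations for 72 h. CellTiter96 AQueous One reagent added for 4 h; viability from absorbance at 490 nm.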

PDGFRβ kinase = PDGFRβ kinase (Homo sapiens (Human), UniProt P09619); assay: PDGFRβ kinase assay (radiometric); assay type: biochemical
Procedure, shortened: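 Radiometric assay: recombinant PDGFRβ with poly(Glu4:Tyr1) in MOPS pH 7.0 buffer containing Mg2+/Mn2+, 10 μM ATP plus [33P]-ATP, and compound at 4% DMSO final. Incubated 60 min at 30° C, stopped with phosphoric acid, filter-captured and scintillation-counted. IC50 from curve fitting.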

[2] = test system: MV4-11 human acute myeloid leukemia cell with FLT3-ITD mutation; assay: MV4-11 cell proliferation assay (CellTiter-96); assay type: cell-based; details: Cytotoxicity, MV4-11 cells, 72 hours
Procedure, shortened: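 MV4-11 cells (FLT3-ITD, FLT3-dependent growth) seeded at 6500 cells/well, incubated overnight at 37° C., 5% CO2, then exposed to increasing compound concentrations for 72 hours. Viability read by CellTiter96 AQueous One reagent (4 hours), absorbance at 490 nm.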

[3] = test system: osteoclast precursors (osteoclast differentiation); assay: Osteoclast tartrate-resistant acid phosphatase assay; assay type: cell-based; details: 168 h, at 1 μM treatment, 7 days, RANKL and M-CSF, read-out: inhibition activity against osteoclast differentiation
Experimental: A serial dilution of test compound was dispensed into a 96-well black clear bottom plate. Compound was diluted by the addition of DMEM media supplemented with 10% characterized fetal bovine serum. Diluted compound was transferred to a 96-well black clear bottom plate. Three thousand osteoclast precursors (Lonza, Walkersville, Md.) were added per well in growth medium containing Receptor Activator of Nuclear Factor Kappa-beta ligand (RANKL) and M-CSF. […] At the end of the incubation period, 50 μL of supernatant from each well was transferred to a clear 96-well plate. Tartrate-resistant acid phosphatase activity in the supernatant samples was determined using an acid phosphatase assay kit (Sigma, St. Louis, Mo.). Absorbance was measured at 550 nm using a plate reader. […] The Inhibition activity against osteoclast differentiation for each compound at 1 μM treatment in duplicate was measured.

[4] = test system: Kasumi-1 human acute myeloid leukemia cell with c-KIT N822K activating mutation; assay: Kasumi-1 cell proliferation assay (CellTiter-96); assay type: cell-based; details: Cytotoxicity, Kasumi-1 cells, 72 hours
Procedure, shortened: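 Kasumi-1 cells, seeded at 64000 cells/well and incubated overnight at 37 °C, were exposed to increasing compound concentrations for 72 h. Viability was measured by CellTiter96 AQueous One reagent (4 h) and absorbance at 490 nm.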

CSF-1R kinase = CSF-1R kinase (Homo sapiens (Human), UniProt P07333); assay: CSF-1R kinase assay (AlphaScreen); assay type: biochemical; details: class symbol
Experimental: Inhibition of CSF-1R kinase activity by a test compound disclosed herein was estimated by AlphaScreen (PerkinElmer). […] Reactions were incubated at 30° C. for 45 min and stopped by adding 5 μL of 50 mM EDTA. Analysis of resulting product using an AlphaScreen kit, and counted with Enspire Alpha (PerkinElmer). […] The IC50 values of quinoxaline compounds of this invention against CSF-1R kinase were determined using the GraphPad Prism 5 software.

c-KIT kinase = c-KIT kinase (Homo sapiens (Human), UniProt P10721); assay: c-KIT kinase assay (radiometric); assay type: biochemical
Procedure, shortened: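 Recombinant c-Kit (20 ng) with 2 μg Poly-(Glu4:Tyr1) in MOPS pH 7.0 buffer with MgCl2/MnCl2, 10 μM ATP plus [^33P]-ATP, 4% DMSO final, 60 min at 30° C. Stopped with phosphoric acid, filter-captured and scintillation counted; IC50 from curve fit.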

[5] = test system: CSF-1-dependent M-NFS-60 mouse myeloid leukemia cell; assay: M-NFS-60 cell proliferation assay (CellTiter-96); assay type: cell-based; details: Cytotoxicity, M-NFS-60 cells, 72 hours
Procedure, shortened: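 CSF-1-dependent M-NFS-60 cells seeded at 2000 cells/well, settled overnight at 37 °C, 5% CO2, then exposed to increasing compound concentrations for 72 h. Viability read by CellTiter 96 AQueous One reagent (4 h) at 490 nm absorbance.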

Chain of FLT3 kinase (P36888 27-993): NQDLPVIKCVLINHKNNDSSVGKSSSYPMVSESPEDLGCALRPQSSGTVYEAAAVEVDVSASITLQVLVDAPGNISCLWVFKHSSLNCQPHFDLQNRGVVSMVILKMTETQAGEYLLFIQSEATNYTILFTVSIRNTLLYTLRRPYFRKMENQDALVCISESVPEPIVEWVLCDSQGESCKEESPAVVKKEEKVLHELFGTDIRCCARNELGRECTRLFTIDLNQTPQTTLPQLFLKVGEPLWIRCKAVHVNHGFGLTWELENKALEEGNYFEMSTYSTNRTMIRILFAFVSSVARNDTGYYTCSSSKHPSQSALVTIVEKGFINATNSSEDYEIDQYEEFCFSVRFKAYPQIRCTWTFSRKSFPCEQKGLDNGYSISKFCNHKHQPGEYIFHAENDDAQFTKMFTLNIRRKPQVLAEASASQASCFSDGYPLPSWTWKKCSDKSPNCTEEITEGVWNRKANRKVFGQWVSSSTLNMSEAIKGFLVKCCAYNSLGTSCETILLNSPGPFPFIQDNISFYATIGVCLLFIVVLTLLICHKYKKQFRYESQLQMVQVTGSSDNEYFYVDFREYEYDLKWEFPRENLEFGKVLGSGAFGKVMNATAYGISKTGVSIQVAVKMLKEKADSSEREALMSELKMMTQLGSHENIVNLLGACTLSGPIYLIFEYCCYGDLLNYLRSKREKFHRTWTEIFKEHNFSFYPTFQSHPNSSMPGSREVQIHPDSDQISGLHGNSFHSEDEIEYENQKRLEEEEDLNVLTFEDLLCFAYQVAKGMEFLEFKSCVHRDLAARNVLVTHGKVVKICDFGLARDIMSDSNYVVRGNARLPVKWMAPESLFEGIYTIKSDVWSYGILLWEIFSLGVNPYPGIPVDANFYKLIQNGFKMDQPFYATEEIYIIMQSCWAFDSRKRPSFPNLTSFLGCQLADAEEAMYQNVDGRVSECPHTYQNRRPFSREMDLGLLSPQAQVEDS
Chain of c-KIT kinase (P10721 26-976): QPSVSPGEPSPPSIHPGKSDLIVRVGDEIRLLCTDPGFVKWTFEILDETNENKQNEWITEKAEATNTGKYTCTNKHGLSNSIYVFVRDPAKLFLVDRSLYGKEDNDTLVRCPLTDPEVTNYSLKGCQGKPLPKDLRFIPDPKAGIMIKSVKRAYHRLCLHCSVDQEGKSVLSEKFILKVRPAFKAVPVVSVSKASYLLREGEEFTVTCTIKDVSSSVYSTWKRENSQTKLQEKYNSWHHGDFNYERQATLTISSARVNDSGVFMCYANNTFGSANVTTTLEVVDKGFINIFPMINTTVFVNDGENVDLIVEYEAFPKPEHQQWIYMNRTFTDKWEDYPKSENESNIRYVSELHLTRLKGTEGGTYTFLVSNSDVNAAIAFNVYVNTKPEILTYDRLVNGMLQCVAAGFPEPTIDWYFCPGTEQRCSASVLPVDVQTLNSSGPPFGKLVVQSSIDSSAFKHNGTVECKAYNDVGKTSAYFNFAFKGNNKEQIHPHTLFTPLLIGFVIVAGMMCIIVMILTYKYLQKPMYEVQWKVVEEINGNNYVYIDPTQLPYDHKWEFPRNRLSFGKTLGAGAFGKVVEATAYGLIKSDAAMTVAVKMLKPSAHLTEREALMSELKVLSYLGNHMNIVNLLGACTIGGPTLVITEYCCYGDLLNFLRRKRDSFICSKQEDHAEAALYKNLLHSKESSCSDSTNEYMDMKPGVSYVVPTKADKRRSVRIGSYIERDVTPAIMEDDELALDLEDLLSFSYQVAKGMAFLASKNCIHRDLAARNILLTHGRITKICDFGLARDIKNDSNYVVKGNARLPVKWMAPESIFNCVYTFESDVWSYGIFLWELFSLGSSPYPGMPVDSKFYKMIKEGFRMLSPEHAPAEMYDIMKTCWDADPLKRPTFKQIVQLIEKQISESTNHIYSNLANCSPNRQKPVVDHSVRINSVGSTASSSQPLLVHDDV
Chain of CSF-1R kinase (P07333 20-972): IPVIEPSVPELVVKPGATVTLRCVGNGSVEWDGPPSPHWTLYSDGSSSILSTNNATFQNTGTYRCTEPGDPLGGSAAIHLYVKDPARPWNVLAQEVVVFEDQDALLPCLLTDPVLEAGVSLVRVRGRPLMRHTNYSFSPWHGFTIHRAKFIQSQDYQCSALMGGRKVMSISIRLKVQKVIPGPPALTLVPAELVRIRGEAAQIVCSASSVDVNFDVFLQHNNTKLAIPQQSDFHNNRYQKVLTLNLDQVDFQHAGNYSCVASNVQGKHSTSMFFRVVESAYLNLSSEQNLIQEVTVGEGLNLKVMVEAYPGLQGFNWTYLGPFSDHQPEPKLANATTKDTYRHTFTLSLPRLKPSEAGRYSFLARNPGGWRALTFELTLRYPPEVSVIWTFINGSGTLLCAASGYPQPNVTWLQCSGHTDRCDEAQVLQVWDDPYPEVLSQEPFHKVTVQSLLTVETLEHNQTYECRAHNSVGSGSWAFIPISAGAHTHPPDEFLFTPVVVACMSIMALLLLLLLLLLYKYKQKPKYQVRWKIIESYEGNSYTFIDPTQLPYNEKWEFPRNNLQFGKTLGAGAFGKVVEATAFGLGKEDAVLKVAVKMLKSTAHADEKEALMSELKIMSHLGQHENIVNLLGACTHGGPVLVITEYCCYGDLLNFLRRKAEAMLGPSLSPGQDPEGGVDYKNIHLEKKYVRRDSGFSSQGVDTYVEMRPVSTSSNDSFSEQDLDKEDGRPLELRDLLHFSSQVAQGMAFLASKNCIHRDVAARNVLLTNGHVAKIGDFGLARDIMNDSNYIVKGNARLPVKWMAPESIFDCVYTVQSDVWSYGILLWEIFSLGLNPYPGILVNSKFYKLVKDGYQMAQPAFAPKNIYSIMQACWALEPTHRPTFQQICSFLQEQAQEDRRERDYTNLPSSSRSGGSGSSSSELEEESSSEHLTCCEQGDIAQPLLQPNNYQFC
Chain of PDGFRβ kinase (P09619 33-1106): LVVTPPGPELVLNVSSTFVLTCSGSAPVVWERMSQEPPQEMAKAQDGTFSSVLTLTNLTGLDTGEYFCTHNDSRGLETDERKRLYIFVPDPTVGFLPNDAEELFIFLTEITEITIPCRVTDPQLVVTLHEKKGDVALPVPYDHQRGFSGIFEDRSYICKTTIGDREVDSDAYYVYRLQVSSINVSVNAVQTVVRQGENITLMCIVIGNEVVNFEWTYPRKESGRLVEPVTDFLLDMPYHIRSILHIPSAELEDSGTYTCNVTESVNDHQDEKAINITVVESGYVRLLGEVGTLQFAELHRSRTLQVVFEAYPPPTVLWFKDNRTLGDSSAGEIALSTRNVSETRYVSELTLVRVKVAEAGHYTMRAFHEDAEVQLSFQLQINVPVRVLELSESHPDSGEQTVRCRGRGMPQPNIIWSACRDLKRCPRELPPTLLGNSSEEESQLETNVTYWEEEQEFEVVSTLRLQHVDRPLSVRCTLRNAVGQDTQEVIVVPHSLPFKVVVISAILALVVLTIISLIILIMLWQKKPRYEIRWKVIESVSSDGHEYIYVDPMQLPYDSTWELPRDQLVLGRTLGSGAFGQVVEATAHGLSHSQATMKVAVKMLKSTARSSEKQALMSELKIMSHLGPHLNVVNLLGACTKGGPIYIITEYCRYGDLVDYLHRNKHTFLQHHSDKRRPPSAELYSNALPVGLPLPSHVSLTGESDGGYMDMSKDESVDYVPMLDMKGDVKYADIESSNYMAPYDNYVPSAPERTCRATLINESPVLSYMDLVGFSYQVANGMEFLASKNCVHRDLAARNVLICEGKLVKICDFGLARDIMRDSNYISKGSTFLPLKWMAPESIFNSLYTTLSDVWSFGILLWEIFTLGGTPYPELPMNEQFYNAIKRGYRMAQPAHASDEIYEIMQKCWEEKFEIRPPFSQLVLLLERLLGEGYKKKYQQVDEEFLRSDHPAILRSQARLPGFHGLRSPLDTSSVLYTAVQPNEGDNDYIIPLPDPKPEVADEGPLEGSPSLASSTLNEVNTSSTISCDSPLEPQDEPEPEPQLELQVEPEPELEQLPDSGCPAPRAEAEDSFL

Compound | IC50 (FLT3 kinase) [nM] | IC50 (PDGFRβ kinase; bound) [nM] | IC50 (CSF-1R kinase) [nM] | IC50 (c-KIT kinase; bound) [nM] | IC50 (c-KIT kinase; class symbol) [nM] | IC50 (PDGFRβ kinase; class symbol) [nM] | IC50 [1] [nM] | IC50 [2] [nM] | inhibition at 1 µM [3] [%] | IC50 [4] [nM] | IC50 [5] [nM]
COc1ccc(COc2ccc(Nc3ccc4ncc(N5CCC(C)CC5)nc4c3C#N)cc2OC)cn1 [Example 69, 6-((3-methoxy-4-((6-methoxypyridin-3-yl)methoxy)phenyl)amino)-3-(4-methylpiperidin-1-yl)quinoxaline-5-carbonitrile] | > 1000 | > 1000 | < 100 | > 1000 |  |  | > 10000 | > 10000 | > 50 | > 10000 | 300 to 1000
COc1ccc(COc2ccc(Nc3ccc4ncc(N5CCC(COC(C)=O)CC5)nc4c3C#N)cc2OC)cc1 [Example 71, (1-(8-cyano-7-((3-methoxy-4-((4-methoxybenzyl)oxy)phenyl)amino)quinoxalin-2-yl)piperidin-4-yl)methyl acetate] | > 1000 | > 1000 | < 100 |  | < 100 |  | > 10000 | > 10000 | > 50 | < 300 | < 300
COc1ccc(COc2ccc(Nc3ccc4ncc(N5CCN(CCOC(C)=O)CC5)nc4c3C#N)cc2OC)cn1 [Example 74, 2-(4-(8-cyano-7-((3-methoxy-4-((6-methoxypyridin-3-yl)methoxy)phenyl)amino)quinoxalin-2-yl)piperazin-1-yl)ethyl acetate] | > 1000 | > 1000 | < 100 |  | < 100 |  | > 10000 | 1000 to 10000 | > 50 | 300 to 1000 | < 300
COc1ccc(COc2ccc(Nc3ccc4ncc(NC5CCN(Cc6ccccc6)CC5)nc4c3C#N)cc2OC)cc1 [Example 77, 3-((1-benzylpiperidin-4-yl)amino)-6-((3-methoxy-4-((4-methoxybenzyl)oxy)phenyl)amino)quinoxaline-5-carbonitrile] | > 1000 | > 1000 | < 100 |  | 300 to 1000 |  | 1000 to 10000 | 1000 to 10000 | > 50 | 1000 to 10000 | 300 to 1000
COc1cc(Nc2ccc3ncc(N4CCOCC4)nc3c2C#N)ccc1OCc1ccc2c(c1)OCO2 [Example 81, 6-((4-(benzo[d][1,3]dioxol-5-ylmethoxy)-3-methoxyphenyl)amino)-3-morpholinoquinoxaline-5-carbonitrile] | > 1000 | > 1000 | < 100 |  | 300 to 1000 |  | > 10000 | > 10000 | > 50 | > 10000 | < 300
COc1ccc(COc2ccc(Nc3ccc4ncc(N5CCC5)nc4c3C#N)cc2OC)cc1 [Example 83, 3-(azetidin-1-yl)-6-((3-methoxy-4-((4-methoxybenzyl)oxy)phenyl)amino)quinoxaline-5-carbonitrile] | > 1000 | > 1000 | < 100 |  | < 100 |  | > 10000 | > 10000 | > 50 | < 300 | < 300

Second part, led by results:

IC50 (FLT3 kinase) [nM] | IC50 (PDGFRβ kinase; bound) [nM] | IC50 (CSF-1R kinase) [nM] | IC50 (c-KIT kinase; bound) [nM] | IC50 (c-KIT kinase; class symbol) [nM] | IC50 (PDGFRβ kinase; class symbol) [nM] | Compound | IC50 [1] [nM] | IC50 [2] [nM] | inhibition at 1 µM [3] [%] | IC50 [4] [nM] | IC50 [5] [nM]
> 1000 |  | < 100 |  | < 100 | 300 to 1000 | COc1ccc(COc2ccc(Nc3ccc4ncc(N5CCN(C(C)=O)CC5)nc4c3C#N)cc2OC)cc1 [Example 72, 3-(4-acetylpiperazin-1-yl)-6-((3-methoxy-4-((4-methoxybenzyl)oxy)phenyl)amino)quinoxaline-5-carbonitrile] | > 10000 | > 10000 | > 50 | < 300 | < 300
> 1000 | > 1000 | < 100 |  | < 100 |  | COc1cc(Nc2ccc3ncc(N4CCOCC4)nc3c2C#N)ccc1OCc1ccc(C(F)(F)F)nc1 [Example 73, 6-((3-methoxy-4-((6-(trifluoromethyl)pyridin-3-yl)methoxy)phenyl)amino)-3-morpholinoquinoxaline-5-carbonitrile] | > 10000 | > 10000 | > 50 | < 300 | < 300
> 1000 | > 1000 | < 100 |  | 100 to 300 |  | COc1ccc(COc2ccc(Nc3ccc4ncc(N5CCN(CCO)CC5)nc4c3C#N)cc2OC)cn1 [Example 75, 3-(4-(2-hydroxyethyl)piperazin-1-yl)-6-((3-methoxy-4-((6-methoxypyridin-3-yl)methoxy)phenyl)amino)quinoxaline-5-carbonitrile] | > 10000 | > 10000 | > 50 | 300 to 1000 | < 300
> 1000 | > 1000 | < 100 |  | 300 to 1000 |  | COc1ccc(COc2ccc(Nc3ccc4ncc(NCCN5CCOCC5)nc4c3C#N)cc2OC)cc1 [Example 76, 6-((3-methoxy-4-((4-methoxybenzyl)oxy)phenyl)amino)-3-((2-morpholinoethyl)amino)quinoxaline-5-carbonitrile] | > 10000 | 1000 to 10000 | > 50 | 1000 to 10000 | < 300
> 1000 | > 1000 | < 100 |  | 100 to 300 |  | COc1cc(Nc2ccc3ncc(N4CCN(C)CC4)nc3c2C#N)ccc1OCc1cccc(C#N)c1 [Example 78, 6-((4-((3-cyanobenzyl)oxy)-3-methoxyphenyl)amino)-3-(4-methylpiperazin-1-yl)quinoxaline-5-carbonitrile] | > 10000 | > 10000 | > 50 | 300 to 1000 | < 300
> 1000 | > 1000 | < 100 |  | < 100 |  | COc1ccc(COc2ccc(Nc3ccc4ncc(N5CCCC5)nc4c3C#N)cc2OC)cn1 [Example 79, 6-((3-methoxy-4-((6-methoxypyridin-3-yl)methoxy)phenyl)amino)-3-(pyrrolidin-1-yl)quinoxaline-5-carbonitrile] | > 10000 | 1000 to 10000 | > 50 | 300 to 1000 | < 300
> 1000 | > 1000 | < 100 |  | < 100 |  | COc1ccc(COc2ccc(Nc3ccc4ncc(N5CCN(C(C)C)CC5)nc4c3C#N)cc2OC)cc1 [Example 80, 3-(4-isopropylpiperazin-1-yl)-6-((3-methoxy-4-((4-methoxybenzyl)oxy)phenyl)amino)quinoxaline-5-carbonitrile] | 1000 to 10000 | 1000 to 10000 | > 50 | < 300 | < 300
> 1000 | > 1000 | < 100 |  | 100 to 300 |  | COc1ccc(COc2ccc(Nc3ccc4ncc(N5CCC(N(C)C)CC5)nc4c3C#N)cc2OC)cn1 [Example 82, 3-(4-(dimethylamino)piperidin-1-yl)-6-((3-methoxy-4-((6-methoxy-pyridin-3-yl)methoxy)phenyl)amino)quinoxaline-5-carbonitrile] | 1000 to 10000 | 1000 to 10000 | > 50 | < 300 | < 300
